Laboratory results reported in ChEMBL document CHEMBL1131576, “7-Oxo-4,5,6,7-tetrahydro-1H-pyrazolo[3,4-c]pyridines as novel inhibitors of human eosinophil phosphodiesterase” (J Med Chem, 1998).

Assays:
U-937 = assay: Arbitary maximal response for cAMP elevation from baseline level was evaluated in Human U-937 cells; assay type: functional, cell-based
Phosphodiesterase 4 = Phosphodiesterase 4 (Homo sapiens, UniProt P27815+Q08499+Q07343+Q08493); assay: Inhibitory activity on human eosinophil phosphodiesterase 4.; assay type: protein assay
Monkey [1] = assay: Percent Eosinophil inhibition in monkeys at 10 mg/kg oral dose; assay type: functional; details: Cercopithecidae, in Primates
Monkey [2] = assay: Percent cytokine IL-8 inhibition in monkeys at 10 mg/kg oral dose; assay type: functional; details: Cercopithecidae, in Primates
[3] = Compound tested for plasma levels in monkeys dosed at 10 mg/kg, po; assay type: ADME, organism-based; set-up: dose 10 mg/kg, route oral; details: monkey, in vivo, read-out: Plasma level
Monkey [4] = assay: Percent cytokine TNF inhibition in monkeys at 10 mg/kg oral dose; assay type: functional; details: Cercopithecidae, in Primates
Cavia porcellus = assay: Effect on Aerosolized Antigen Induced Airway Obstruction (AAIAO) in guinea pig after oral dose; assay type: functional
[5] = target: Phosphodiesterase 3 (Homo sapiens) (UniProt Q14432+Q13370); assay: Inhibition of PDE3 from human heart at 100 uM; assay type: protein assay
Monkey [6] = assay: Percent cytokine inhibition in monkeys at 10 mg/kg oral dose; assay type: functional; details: Cercopithecidae, in Primates
[7] = target: cGMP-specific 3',5'-cyclic phosphodiesterase (Homo sapiens) (UniProt O76074); assay: Inhibition of Phosphodiesterase 5 from human corpus cavernosum at 10 uM
[8] = target: cGMP-specific 3',5'-cyclic phosphodiesterase (Homo sapiens) (UniProt O76074); assay: Inhibition of Phosphodiesterase 5 from human corpus cavernosum at 1 uM
[9] = target: Phosphodiesterase 1 (Homo sapiens) (UniProt P54750+Q01064+Q14123); assay: Inhibition of Phosphodiesterase 1 from human cardiac ventricle at 10 uM; assay type: protein assay

| EC50 (U-937) [nM] | IC50 (Phosphodiesterase 4) [nM] | SMILES | also measured |
| --- | --- | --- | --- |
|  | 490 | CCc1nn(-c2ccc(F)cc2)c2c1CCN(c1cccc(OC)c1)C2=O |  |
| 500 | 2240 | CCc1nn(-c2ccc(F)cc2)c2c1CCN(c1ccc(C)cc1)C2=O |  |
| 780 | 270 | CCc1nn(-c2ccc(F)cc2)c2c1CCN(c1cccc(C)c1)C2=O |  |
| 3210 | 1080 | CCc1nn(-c2ccc(F)cc2)c2c1CCN(c1ccccc1OC)C2=O |  |
| 6250 | 6040 | CCc1nn(-c2ccc(F)cc2)c2c1CCN(c1ccc(OC)cc1)C2=O |  |
| 13000 | 84700 | CCCCc1nn(-c2ccc(F)cc2)c2c1CCN(c1ccccc1)C2=O |  |
| 880 | 1640 | CCc1nn(-c2ccc(F)cc2)c2c1CCN(c1ccccc1)C2=O | inhibition [5]: 33%; inhibition [7]: 50%; inhibition [8]: 1%; inhibition [9]: 2%; ED50 (Cavia porcellus): 4.3 mg/kg |
|  | 890 | CCc1nn(-c2ccc(F)cc2)c2c1CCN(c1ccccc1C)C2=O |  |

The remaining lines, values behind:

| SMILES | EC50 (U-937) [nM] | IC50 (Phosphodiesterase 4) [nM] | also measured |
| --- | --- | --- | --- |
| COc1ccc([C@]2(C#N)CC[C@@H](C(=O)O)CC2)cc1OC1CCCC1 [CILOMILAST] | 3630 |  |  |
| CCc1nn(C2CCCC2)c2c1CCN(c1ccccc1)C2=O | 70 | 160 |  |
| COc1ccc(C2CNC(=O)C2)cc1OC1CCCC1 (stereo not drawn) [ROLIPRAM] | 1230 |  | inhibition in vivo at 10 mg/kg (Monkey [1]): 49.4%; inhibition in vivo at 10 mg/kg (Monkey [2]): 84%; concentration [3]: 910 nM; inhibition in vivo at 10 mg/kg (Monkey [4]): 33.4%; ED50 (Cavia porcellus): 0.6 mg/kg |
| CCc1nn(C2CCCC2)c2c1CCN(c1cccs1)C2=O | 1 | 63 |  |
| CCc1nn(C2CCC2)c2c1CCN(c1cccc(OC)c1)C2=O | 520 | 150 |  |
| COc1ccc(C(=O)Nc2c(Cl)cncc2Cl)cc1OC1CCCC1 | 40 |  |  |
| COc1ccc(N2CCc3c(C)nn(-c4ccc(F)cc4)c3C2=O)cc1 |  | 15700 |  |
| CCc1nn(C2CCCC2)c2c1CCN(c1cccc(Cl)c1)C2=O | 41 | 39 |  |
| CCc1nn(C2CCCC2)c2c1CCN(c1cccc(OC)c1)C2=O | 330 | 34 |  |
| COc1ccc([C@H](Cc2ccncc2)c2ccccc2)cc1OC1CCCC1 [CDP840] | 290 | 670 |  |
| CCc1nn(C2CCCC2)c2c1CCN(c1ccccc1C)C2=O | 330 | 440 | inhibition in vivo at 10 mg/kg (Monkey [1]): 55.2%; inhibition [5]: 9%; inhibition in vivo at 10 mg/kg (Monkey [6]): 82.1%; concentration [3]: 280 nM; inhibition [7]: 21%; inhibition [8]: 7%; inhibition [9]: 8%; ED50 (Cavia porcellus): 2 mg/kg |
| CCc1nn(C2CCCC2)c2c1CCN(Cc1ccccc1)C2=O | 36 | 420 |  |
| CCc1nn(C2CCCC2)c2c1CCN(c1ccsc1)C2=O | 36 | 660 |  |
| CCc1nn(C2CCS(=O)(=O)C2)c2c1CCN(c1cccc(OC)c1)C2=O (stereo not drawn) | 5270 | 460 |  |
| CCc1nn(C2CCCC2)c2c1CCN(c1cccnc1)C2=O | 17 | 160 |  |
| CCc1nn(C2CCCC2)c2c1CCN(c1ccccn1)C2=O |  | 1640 |  |
| CCc1nn(C2CCCCC2)c2c1CCN(c1cccc(OC)c1)C2=O | 980 | 48 |  |
| CCCc1nn(-c2ccc(F)cc2)c2c1CCN(c1ccc(OC)cc1)C2=O | 11000 | 84900 |  |
